Experimental data from EP3046573B1, “AMYLIN ANALOGUES” (Zealand Pharma A/S, priority 2013, dated 2015).
Read-outs that look alike come from different tables or passages of the source. Numbered stars: 1 amine (or outer) side, 2 acyl side, 3 side chain; on linkers, the order of the positions; unused ones are H or OH. Bridge positions count the residues as written; N and C are the ends. Square brackets hold non-standard residues; d marks the D form. Peptide text beside a SMILES is read from it. * marks the point of attachment. C20 diacid = O=C(O)CCCCCCCCCCCCCCCCCCC(=O)*; γGlu = O=C(O)[C@H](CCC(=O)[*:2])N[*:1]; NMeI = CC[C@H](C)[C@H](NC)C(=O)O; Sar = CNCC(=O)O

Tests used:
[1] = target: T1, human calcitonin receptor (hCTR2) (Homo sapiens, UniProt P30988); experiment: hCTR2 assay: induction of cAMP (AlphaScreen cAMP Assay kit) in COS7 cells expressing hCTR2; format: cell-based
T1 construct: expressed in transfected cells
T1 sequence (P30988 25-474): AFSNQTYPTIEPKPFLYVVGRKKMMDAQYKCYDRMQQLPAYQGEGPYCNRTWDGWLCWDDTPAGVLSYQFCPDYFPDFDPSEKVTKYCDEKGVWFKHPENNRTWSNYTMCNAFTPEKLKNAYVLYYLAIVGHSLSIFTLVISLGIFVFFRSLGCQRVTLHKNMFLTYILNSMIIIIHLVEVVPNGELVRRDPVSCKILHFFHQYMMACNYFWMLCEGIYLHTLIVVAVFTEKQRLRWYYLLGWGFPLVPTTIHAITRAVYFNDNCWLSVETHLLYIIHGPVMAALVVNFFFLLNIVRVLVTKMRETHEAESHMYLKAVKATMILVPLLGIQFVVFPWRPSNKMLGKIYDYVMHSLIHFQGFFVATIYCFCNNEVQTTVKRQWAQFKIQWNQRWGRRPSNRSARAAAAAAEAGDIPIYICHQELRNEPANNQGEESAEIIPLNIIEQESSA
Procedure, shortened: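 Cells were seeded one day ahead, washed, then exposed to rising peptide concentrations for 15 min at 37° C in the presence of 100 µM IBMX. After lysis for 10 min at room temperature, cAMP was quantified by AlphaScreen and EC50 values derived by 4PL fitting.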

[2] = target: T2, human amylin receptor 3 (hAMYR3) consisting of hCTR2 co-expressed with human Receptor Activity Modifying Protein 3 (hRAMP3) (Homo sapiens, UniProt O60896+P30988); experiment: hAMYR3 assay: induction of cAMP (AlphaScreen cAMP Assay kit) in COS7 cells expressing hAMYR3; format: cell-based
T2 construct: expressed in transfected cells
T2 sequence (P30988 25-474): T1 sequence (P30988 25-474)
T2 sequence (O60896 24-148 partner): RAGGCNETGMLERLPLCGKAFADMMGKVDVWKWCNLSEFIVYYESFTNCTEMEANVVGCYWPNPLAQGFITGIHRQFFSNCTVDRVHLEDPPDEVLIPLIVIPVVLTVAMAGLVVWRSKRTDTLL
Procedure, shortened: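 cAMP accumulation read by AlphaScreen in lysates of RAMP-naive COS7 cells stably transfected with hCTR2 plus hRAMP3. Cells exposed to peptide dilutions for 15 min, 37° C, with 100 µM IBMX; 4PL fitting gave EC50 and efficacy relative to pramlintide.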

[3] = Solubility assessment (turbidity absorbance at 325 nm); format: physicochemical; details: stock 2 mg/ml diluted 1:1, ambient temperature (typically 25°C), n=1; for Solubility, Acetate buffer pH 4: 100 mM acetate buffer pH 4.0; for Solubility, Acetate buffer pH 5: 100 mM acetate buffer pH 5.0; for Solubility, Histidine buffer pH 6: 100 mM histidine buffer pH 6.0; for Solubility, Histidine buffer pH 7: 100 mM histidine buffer pH 7.0; for Solubility, Phosphate buffer pH 6: 100 mM phosphate buffer pH 6.0; for Solubility, Phosphate buffer pH 7: 100 mM phosphate buffer pH 7.0; for Solubility, Phosphate buffer pH 7.5: 100 mM phosphate buffer pH7.5
Procedure, shortened: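 Read-out: turbidity as absorbance at 325 nm (280 nm also read), single samples, ambient temperature of typically 25°C. Samples were a 1:1 mix of 2 mg/ml stock (water, pH 2.5) with 100 mM acetate, histidine or phosphate buffers spanning pH 4.0–7.5. Cut-off: A325 ≤ 0.02 indicates ≥ 1 mg/ml.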

[4] = cAMP induction in COS7 cells expressing hCTR2, average of a minimum of 3 determinations, read-out: hCTR2 EC50
[5] = cAMP induction in COS7 cells expressing hAMYR3, average of a minimum of 3 determinations, read-out: hAMY R3 EC50

| Structure (SMILES) | EC50 [1, 4] | EC50 [2, 5] | Solubility, Acetate buffer pH 4 [3] | Solubility, Acetate buffer pH 5 [3] | Solubility, Histidine buffer pH 6 [3] | Solubility, Histidine buffer pH 7 [3] | Solubility, Phosphate buffer pH 6 [3] | Solubility, Phosphate buffer pH 7 [3] | Solubility, Phosphate buffer pH 7.5 [3] | EC50 [1] | EC50 [2] |
| --- | --- | --- | --- | --- | --- | --- | --- | --- | --- | --- | --- |
| CC[C@H](C)[C@@H](C(=O)N[C@@H](CC(C)C)C(=O)N[C@@H](CO)C(=O)N[C@@H](CO)C(=O)N[C@H](C(=O)N[C@@H](CC(=O)O)C(=O)N[C@H](C(=O)NCC(=O)N[C@@H](CO)C(=O)N[C@@H](CC(=O)O)C(=O)N[C@H](C(=O)N1CCC[C@H]1C(N)=O)[C@@H](C)O)C(C)C)[C@@H](C)O)N(C)C(=O)[C@H](C)NC(=O)CN(C)C(=O)[C@H](Cc1ccccc1)NC(=O)[C@H](CO)NC(=O)[C@H](CO)NC(=O)[C@H](CCCNC(=N)N)NC(=O)[C@H](Cc1c[nH]cn1)NC(=O)[C@H](CC(C)C)NC(=O)[C@H](Cc1ccccc1)NC(=O)[C@H](CCC(=O)O)NC(=O)[C@H](C)NC(=O)[C@H](CC(C)C)NC(=O)[C@H](CCCNC(=N)N)NC(=O)[C@H](CC(=O)O)NC(=O)[C@@H](NC(=O)[C@H](C)NC(=O)[C@@H]1CSSC[C@H](NC(=O)[C@H](CCCNC(=N)N)NC(=O)CC[C@H](NC(=O)CCCCCCCCCCCCCCCCCCC(=O)O)C(=O)O)C(=O)N2CCC[C@H]2C(=O)N[C@@H]([C@@H](C)O)C(=O)N[C@@H](C)C(=O)N[C@@H]([C@@H](C)O)C(=O)N1)[C@@H](C)O [Compound 172, [19CD]-isoGlu-RC()PTATC()ATDRLAEFLHRSSF-Gly(Me)-A-Ile(Me)-LSSTDVGSDTP-NH2] ({C20 diacid-γGlu}-RCPTATCATDRLAEFLHRSSF[Sar]A[NMeI]LSSTDVGSDTP-NH2; disulfide 2-7) | 0.045 nM | 0.095 nM | SS (SS indicates solubility ≥ 1mg/ml) | SS (SS indicates solubility ≥ 1mg/ml) | SS (SS indicates solubility ≥ 1mg/ml) | SS (SS indicates solubility ≥ 1mg/ml) | SS (SS indicates solubility ≥ 1mg/ml) | SS (SS indicates solubility ≥ 1mg/ml) | SS (SS indicates solubility ≥ 1mg/ml) |  |  |
| CC[C@H](C)[C@@H](C(=O)N[C@@H](CC(C)C)C(=O)N[C@@H](CO)C(=O)N[C@@H](CO)C(=O)N[C@H](C(=O)N[C@@H](CC(N)=O)C(=O)N[C@H](C(=O)NCC(=O)N[C@@H](CO)C(=O)N[C@@H](CC(N)=O)C(=O)N[C@H](C(=O)N1CCC[C@H]1C(N)=O)[C@@H](C)O)C(C)C)[C@@H](C)O)N(C)C(=O)[C@H](C)NC(=O)CN(C)C(=O)[C@H](Cc1ccccc1)NC(=O)[C@H](CC(N)=O)NC(=O)[C@H](CC(N)=O)NC(=O)[C@H](CO)NC(=O)[C@H](CO)NC(=O)[C@H](CCCNC(=N)N)NC(=O)[C@H](Cc1c[nH]cn1)NC(=O)[C@H](CC(C)C)NC(=O)[C@H](Cc1ccccc1)NC(=O)[C@H](CCC(=O)O)NC(=O)[C@H](C)NC(=O)[C@H](CC(C)C)NC(=O)[C@H](CCCNC(=N)N)NC(=O)[C@H](CCC(N)=O)NC(=O)[C@@H](NC(=O)[C@H](C)NC(=O)[C@@H]1CSSC[C@H](NC(=O)[C@H](Cc2c[nH]c3ccccc23)NC(=O)[C@H](CCCNC(=N)N)NC(=O)CC[C@H](NC(=O)CCCCCCCCCCCCCCCCCCC(=O)O)C(=O)O)C(=O)N[C@@H](CC(N)=O)C(=O)N[C@@H]([C@@H](C)O)C(=O)N[C@@H](C)C(=O)N[C@@H]([C@@H](C)O)C(=O)N1)[C@@H](C)O [Compound 174, [19CD]-isoGlu-RWC()NTATC()ATQRLAEFLHRSSNNF-Gly(Me)-A-Ile(Me)-LSSTNVGSNTP-NH2] ({C20 diacid-γGlu}-RWCNTATCATQRLAEFLHRSSNNF[Sar]A[NMeI]LSSTNVGSNTP-NH2; disulfide 3-8) |  |  | SS (SS indicates solubility ≥ 1mg/ml) | SS (SS indicates solubility ≥ 1mg/ml) | SS (SS indicates solubility ≥ 1mg/ml) | SS (SS indicates solubility ≥ 1mg/ml) | SS (SS indicates solubility ≥ 1mg/ml) | SS (SS indicates solubility ≥ 1mg/ml) | II (II indicates solubility ≤ 1 mg/ml) | 0.18 nM | 0.18 nM |
| CC[C@H](C)[C@@H](C(=O)N[C@@H](CC(C)C)C(=O)N1CCC[C@H]1C(=O)N1CCC[C@H]1C(=O)N[C@H](C(=O)N[C@@H](CC(N)=O)C(=O)N[C@H](C(=O)NCC(=O)N[C@@H](CO)C(=O)N[C@@H](CC(N)=O)C(=O)N[C@H](C(=O)N1CCC[C@H]1C(N)=O)[C@@H](C)O)C(C)C)[C@@H](C)O)N(C)C(=O)CN(C)C(=O)[C@H](Cc1ccccc1)NC(=O)[C@H](CC(N)=O)NC(=O)[C@H](CC(N)=O)NC(=O)[C@H](CO)NC(=O)[C@H](CO)NC(=O)[C@H](Cc1c[nH]cn1)NC(=O)[C@H](Cc1c[nH]cn1)NC(=O)[C@H](CC(C)C)NC(=O)[C@H](Cc1ccccc1)NC(=O)[C@H](CCC(=O)O)NC(=O)[C@H](C)NC(=O)[C@H](CC(C)C)NC(=O)[C@H](CCCNC(=N)N)NC(=O)[C@H](CCC(N)=O)NC(=O)[C@@H](NC(=O)[C@H](C)NC(=O)[C@@H]1CSSC[C@H](NC(=O)[C@H](CCCNC(=N)N)NC(=O)CC[C@H](NC(=O)CCCCCCCCCCCCCCCCCCC(=O)O)C(=O)O)C(=O)N[C@@H](CC(N)=O)C(=O)N[C@@H]([C@@H](C)O)C(=O)N[C@@H](C)C(=O)N[C@@H]([C@@H](C)O)C(=O)N1)[C@@H](C)O [Compound 176, [19CD]-isoGlu-RC()NTATC()ATQRLAEFLHHSSNNF-Gly(Me)-Ile(Me)-LPPTNVGSNTP-NH2] ({C20 diacid-γGlu}-RCNTATCATQRLAEFLHHSSNNF[Sar][NMeI]LPPTNVGSNTP-NH2; disulfide 2-7) | 0.12 nM | 0.17 nM | SS (SS indicates solubility ≥ 1mg/ml) | SS (SS indicates solubility ≥ 1mg/ml) | SS (SS indicates solubility ≥ 1mg/ml) | SS (SS indicates solubility ≥ 1mg/ml) | SS (SS indicates solubility ≥ 1mg/ml) | SS (SS indicates solubility ≥ 1mg/ml) | SS (SS indicates solubility ≥ 1mg/ml) |  |  |
